Results from US12285407B2, “Bis-indolylmethane derivatives and uses thereof” (The University of The West Indies, priority 2018, dated 2025).
Where two headings read alike, the source gives them in different places. Blank lines part the entries; values can stand above or below the compound they belong to.

Assays:
[1] = system: Klebsiella pneumoniae; assay: Checkerboard synergy (FICI) of antibiotics with SP-BIM; assay type: cell-based
[2] = system: Bacillus cereus; assay: as above; assay type: cell-based; conditions: for MIC: 24 h, antibiotic alone, read-out: MIC antibiotic only
[3] = system: Candida albicans; assay: as above; parameters: MIC SP-BIM 13 only / MIC in combination: Antibiotic / MIC antibiotic only: unit not given beside the values
[4] = system: Klebsiella pneumoniae; assay: Adjuvant broth microdilution (antibiotic MIC with SP-BIM at 50 μg/mL); assay type: cell-based; conditions: Klebsiella pneumoniae; antibiotic alone; Table 7; read-out: MIC of antibiotic, No compound
[5] = system: Streptococcus pneumoniae; assay: as above; assay type: cell-based; conditions: Streptococcus pneumoniae; Streptococcus pneumonia; antibiotic alone; Table 5; read-out: MIC of antibiotic, No compound
[6] = system: Staphylococcus aureus; assay: Checkerboard synergy (FICI) of antibiotics with SP-BIM; assay type: cell-based; conditions: Staphylococcus aureus, Staphylococcus aureus
[7] = system: Escherichia coli; assay: as above
[8] = system: MRSA; assay: Adjuvant broth microdilution (antibiotic MIC with SP-BIM at 50 μg/mL); assay type: cell-based, Staphylococcus aureus; conditions: Staphylococcus aureus, antibiotic alone, Table 4, read-out: MIC of antibiotic, No compound
[9] = system: Enterococcus faecium; assay: Checkerboard synergy (FICI) of antibiotics with SP-BIM; assay type: cell-based; conditions: Enterococcus faecium
[10] = system: Streptococcus pneumoniae; assay: as above; assay type: cell-based
[11] = system: Escherichia coli O157:H7; assay: Rescue concentrations of SP-BIM that reactivate antibiotic; assay type: cell-based
[12] = SP-BIM 9 in combination with the labelled antibiotic
[13] = SP-BIM 13 in combination with the labelled antibiotic
[14] = antibiotic in combination with SP-BIM 9
[15] = antibiotic in combination with SP-BIM 13
[16] = Streptococcus pneumoniae, antibiotic + SP-BIM 13

MIC in combination, Antibiotic [1, 14]: 1 µg/mL
MIC in combination, Antibiotic [1, 15]: 8 µg/mL
MIC ([2]; SP-BIM 9 checkerboard): > 250 µg/mL
MIC ([2]; SP-BIM 13 checkerboard): 250 µg/mL
MIC in combination, SP-BIM 9 ([2]; SP-BIM 9 concentration in combination with the labelled antibiotic): 63 µg/mL
MIC in combination, Antibiotic [2, 14]: 63 µg/mL
MIC in combination, Antibiotic [2, 15]: 250 µg/mL
MIC ([3]; 24 h, read-out: MIC antibiotic only): > 250 µg/mL
MIC in combination: Antibiotic ([3]; MIC of the antibiotic in combination with SP-BIM 13): 250
MIC [4]: 8 µg/mL
MIC [5]: > 250 µg/mL
MIC ([6]; 24 h, antibiotic alone, SP-BIM 9 checkerboard, read-out: MIC antibiotic only): > 250 µg/mL
MIC ([6]; 24 h, antibiotic alone, SP-BIM 13 checkerboard, read-out: MIC antibiotic only): > 250 µg/mL
MIC ([6]; MRSA, read-out: MIC of aztreonam only, MRSA, checkerboard): 250 µg/mL
MIC in combination, Antibiotic [6, 14]: 8.0 µg/mL
MIC in combination, Antibiotic [6, 15]: 32 µg/mL
MIC in combination, Antibiotic [7, 14]: 32 µg/mL
MIC [8]: > 250 µg/mL
MIC in combination, Antibiotic ([10]; Streptococcus pneumoniae, antibiotic in combination with SP-BIM 13): 8 µg/mL
SMILES: C[C@H]1[C@H](NC(=O)/C(=N\OC(C)(C)C(=O)O)c2csc(N)n2)C(=O)N1S(=O)(=O)O [Aztreonam, aztreonam]
FIC of SP-BIM 9 [1, 12]: 0.064
FIC of SP-BIM 13 [1, 13]: 0.3
Interpretation ([1]; antibiotic + SP-BIM 9): Synergy (Synergy: FICI≤0.5)
Σ FIC ([1]; antibiotic + SP-BIM 9): <0.1
Interpretation ([1]; antibiotic + SP-BIM 13): Synergy (Synergy: FICI≤0.5)
Σ FIC ([1]; antibiotic + SP-BIM 13): <0.3
FIC of antibiotic ([1]; in combination with SP-BIM 9): 0.008
FIC of antibiotic ([1]; in combination with SP-BIM 13): 0.1
FIC of SP-BIM 9 [2, 12]: 0.252
FIC of SP-BIM 13 [2, 13]: 0.5
Interpretation ([2]; antibiotic + SP-BIM 9): Synergy (Synergy: FICI≤0.5)
Σ FIC ([2]; antibiotic + SP-BIM 9): <0.5
Interpretation ([2]; antibiotic + SP-BIM 13): Indifferent (Indifferent: FICI>1.0-4.0)
Σ FIC ([2]; antibiotic + SP-BIM 13): 1.5
FIC of antibiotic ([2]; in combination with SP-BIM 9): 0.252
FIC of antibiotic ([2]; in combination with SP-BIM 13): 1.00
FIC of SP-BIM 13 [3, 13]: 1.0
Interpretation ([3]; antibiotic + SP-BIM 13): Indifferent (Indifferent: FICI>1.0-4.0)
Σ FIC ([3]; antibiotic + SP-BIM 13): <2.0
FIC of antibiotic ([3]; combination with SP-BIM 13): 1.0
FIC of SP-BIM 9 [6, 12]: 0.12
FIC of SP-BIM 13 [6, 13]: 0.5
Interpretation ([6]; antibiotic + SP-BIM 9): Synergy (Synergy: FICI≤0.5)
Σ FIC ([6]; antibiotic + SP-BIM 9): <0.16
Interpretation ([6]; antibiotic + SP-BIM 13): Additive (Additive: FICI>0.5-1.0)
Σ FIC ([6]; antibiotic + SP-BIM 13): <0.6
FIC of antibiotic ([6]; in combination with SP-BIM 9): 0.03
FIC of antibiotic ([6]; in combination with SP-BIM 13): 0.1
FIC of SP-BIM 9 [7, 12]: 0.5
FIC of SP-BIM 13 [7, 13]: 1.0
Interpretation ([7]; antibiotic + SP-BIM 9): Synergy (Synergy: FICI≤0.5)
Σ FIC ([7]; antibiotic + SP-BIM 9): <0.8
Interpretation ([7]; antibiotic + SP-BIM 13): Indifferent (Indifferent: FICI>1.0-4.0)
Σ FIC ([7]; antibiotic + SP-BIM 13): <2.0
FIC of antibiotic ([7]; combination with SP-BIM 13): 1.0
FIC of antibiotic ([7]; in combination with SP-BIM 9): 0.256
FIC of SP-BIM 13 [9, 13]: 1.0
Interpretation ([9]; antibiotic + SP-BIM 13): Indifferent (Indifferent: FICI>1.0-4.0)
Σ FIC ([9]; antibiotic + SP-BIM 13): 2.0
FIC of antibiotic ([9]; in combination with SP-BIM 13): 1.0
Σ FIC ([10]; Streptococcus pneumonia (title: Streptococcus pyogenes), antibiotic + SP-BIM 9): <0.00
FIC of SP-BIM 13 ([10]; Streptococcus pneumoniae, SP-BIM 13 in combination with the labelled antibiotic): 0.3
Interpretation [10, 16]: Synergy (Synergy: FICI≤0.5)
Σ FIC [10, 16]: <0.3
FIC of antibiotic ([10]; Streptococcus pneumoniae, in combination with SP-BIM 13): 0.1

SMILES: Oc1ccc2[nH]cc(C(c3ccc(Br)cc3)c3c[nH]c4ccc(O)cc34)c2c1 [SP-BIM 26, 3,3′-((4-bromophenyl)methylene)bis(1H-indol-5-ol)]
MIC of vancomycin in combination with […] SP-BIM 26 ([11]; E. coli O157:H7): 4 µg/mL
MIC ([11]; Escherichia coli, read-out: MIC (single agent)): > 250 µg/mL
